We go through four compounds from patent publication US20240109924A1, “IP4-4,6 SUBSTITUTED DERIVATIVE COMPOUNDS” (SANIFIT THERAPEUTICS, S.A., priority 2021, published 2024).

Assay [1] can be described thus: In vitro inhibition of calcium phosphate crystallization in human plasma (spectrophotometric assay). It counts as biochemical. The note with it: 0-100 μM, 1.5 mM phosphate, 12.5 mM calcium, pH 7.4, absorbance 550 nm, slope 6-24 min, read-out: Relative Potency. The gist of the method:
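Human plasma spiked with compound (0-100 μM), centrifuged, then brought to final 1.5 mM phosphate and 12.5 mM calcium, pH 7.4. Absorbance at 550 nm read every 3 min for 30 min at rt; inhibition from slopes (6-24 min, absorbance vs log time) relative to blank plasma.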

Another assay has as its system blood perfusion. Put plainly: In vivo blood perfusion (laser doppler perfusion imaging) in vitamin D3-induced limb ischemia rat model. Conditions: average blood perfusion recovery vs vehicle and sham (sham 100%), SD rats, 30 mg/kg s.c. daily D1-D5. The procedure: (§1) The effects of compounds 1, 6, 9, 14, 18, 31, and 39 over blood perfusion and tissue calcification after the inception of limb ischemia were tested using a rat model for a duration of 5 days. Limb ischemia was induced to all groups from D1 to D3 excepting the sham group, to which no ischemia was induced. The animals were administered placebo and active agent formulations from D1 to D5. Observations were taken at several points during the treatment from D0 to D5. All animals were weighed every day before treatment. Seventy-two male Sprague Dawley (SD) rats (Envigo Corp., Huntingdon, GB) weighing approximately 150-200 g were used. The rats were fed with a […]® Rod14-H diet ([…] GmbH, Soest, DE). The rats were divided in 9 groups, 8 animals per group, as follows: • Group 1-Control (Sham) • Group 2-Physiological saline solution • Group 3-Compound 1 • Group 4-Compound 6 • Group 5-Compound 9 • Group 6-Compound 14 • Group 7-Compound 18 • Group 8-Compound 31 • Group 9-Compound 39 Limb ischemia was induced in the rats of groups 2-9 by subcutaneous administration of 150,000 IU/kg vitamin D3 (cholecalciferol, Duphafral D3 1000; Zoetis Inc., Parsippany, NJ, US) in physiological saline solution (2 mL/kg) every day during D1 to D3. The rats of group 1 were not administered vitamin D3. The rats in groups 1 and 2 were administered 2 mL/kg of physiological saline solution daily from D1 to D5 via subcutaneous route. The animals in groups 3-9 were administered subcutaneously 30 mg/kg of compounds 1, 6, 9, 14, 18, 31, and 39, respectively, in physiological saline solution (2 mL/kg), every day from D1 to D5. Limb functional and ischemia status were evaluated by using a laser doppler perfusion imaging apparatus PeriCam PSI Normal Resolution (Perimed AB, Järfälla, SE) in all groups at D0 and D5. The perfusion difference and perfusion ratio were calculated by comparing the baseline and either D0 or D5 readings for each group. In addition, the blood perfusion ratio of each treatment group (i.e., groups 2 to 9) to sham group was also calculated. All rats of groups 1-9 were sacrificed on D5 30 minutes after dosing for determining their Ca baseline values. The animals were anesthetized by isoflurane inhalation. The whole aorta, carotids, femoral arteries, heart, and right kidney of the subjects were collected for calcium content measurement. The tissues were lyophilized for 48-72 h and weighed. The lyophilized tissues were then digested using a 1:1 HNO3:HClO4 mixture in a dry bath incubator for 2-4 h at 180° C. The digested tissues were subsequently diluted using ultra-pure MilliQ® water (MilliporeSigma (Merck KGaA), Burlington, MA, US) to a final volume of 5 mL (i.e., for femoral arteries and carotids) of 10 mL (i.e., for heart, kidneys, and aorta). Calcium content was quantified via inductively coupled plasma optical emission spectrometry (ICP-OES) using an Optima 7300 DV ICP-OES System spectrometer (PerkinElmer, Inc., Waltham, MA, US) according to the manufacturer's instructions. Average blood perfusion recovery compared to vehicle and sham were also calculated. Recovery for sham was 100%. Blood perfusion recovery calculated was using the following equation: 100-((BP sham-BP new drug)/(BP sham-BP vehicle)*100).

The test system of another assay is tissue calcification. As to the kind of experiment: In vivo tissue calcification (calcium content by ICP-OES) in vitamin D3-induced limb ischemia rat model. Conditions: SD rats, vitamin D3 150,000 IU/kg s.c. D1-D3, 30 mg/kg s.c. daily D1-D5, sacrifice D5; for Inhibition of calcification (%) Femoral: femoral arteries; for Inhibition of calcification (%) Kidney: right kidney. The procedure: as §1, with “D5.” for “D5. Limb functional and ischemia status were evaluated by using a laser doppler perfusion imaging apparatus PeriCam PSI Normal Resolution (Perimed AB, Järfälla, SE) in all groups at D0 and D5. The perfusion difference and perfusion ratio were calculated by comparing the baseline and either D0 or D5 readings for each group. In addition, the blood perfusion ratio of each treatment group (i.e., groups 2 to 9) to sham group was also calculated.”

As to `NCCCCCO[C@@H]1[C@@H](OP(=O)([O-])[O-])[C@H](OCCCCCN)[C@@H](OP(=O)([O-])[O-])[C@@H](OP(=O)([O-])[O-])[C@H]1OP(=O)([O-])[O-].[Na+].[Na+].[Na+].[Na+].[Na+].[Na+].[Na+].[Na+]` [Compound 14, 4,6-O-bis(5-aminopentyl)-myo-inositol-1,2,3,5-tetrakis(phosphate) octasodium salt], in assay [1], the EC50 is ≤ 5 µM. The “BP recovery (%)” value in the assay on blood perfusion is listed as “Over (Average blood perfusion recovery over or under 25%.)”. In the assay on tissue calcification, the “Inhibition of calcification (%) Aorta” value is listed as “Under (Average inhibition percentage over or under 25% inhibition of calcification.)”, the “Inhibition of calcification (%) Carotid” value is “Under (Average inhibition percentage over or under 25% inhibition of calcification.)”, the “Inhibition of calcification (%) Femoral” value was “Over (Average inhibition percentage over or under 25% inhibition of calcification.)” and the “Inhibition of calcification (%) Heart” value is listed as “Over (Average inhibition percentage over or under 25% inhibition of calcification.)”. The “Inhibition of calcification (%) Kidney” value with tissue calcification is reported as “Over (Average inhibition percentage over or under 25% inhibition of calcification.)”.

Consider `O=C([O-])CCCCCO[C@@H]1[C@@H](OP(=O)([O-])[O-])[C@H](OCCCCCC(=O)[O-])[C@@H](OP(=O)([O-])[O-])[C@@H](OP(=O)([O-])[O-])[C@H]1OP(=O)([O-])[O-].[Na+].[Na+].[Na+].[Na+].[Na+].[Na+].[Na+].[Na+].[Na+].[Na+]` [Compound 18, 4,6-O-bis(5-carboxypentyl)-myo-inositol-1,2,3,5-tetrakis(phosphate) decasodium salt], for which the EC50 in assay [1] was ≤ 5 µM. Moreover, the “BP recovery (%)” value in the assay with blood perfusion is given as “Over (Average blood perfusion recovery over or under 25%.)”. Also, in the assay with tissue calcification, the “Inhibition of calcification (%) Aorta” value is recorded as “Under (Average inhibition percentage over or under 25% inhibition of calcification.)”, the “Inhibition of calcification (%) Carotid” value was “Under (Average inhibition percentage over or under 25% inhibition of calcification.)”, the “Inhibition of calcification (%) Femoral” value is on record as “Under (Average inhibition percentage over or under 25% inhibition of calcification.)” and the “Inhibition of calcification (%) Heart” value was “Over (Average inhibition percentage over or under 25% inhibition of calcification.)”. Besides, the “Inhibition of calcification (%) Kidney” value with tissue calcification is “Over (Average inhibition percentage over or under 25% inhibition of calcification.)”.

`O=C([O-])CCn1cc(CO[C@@H]2[C@@H](OP(=O)([O-])[O-])[C@H](OCc3cn(CCC(=O)[O-])nn3)[C@@H](OP(=O)([O-])[O-])[C@@H](OP(=O)([O-])[O-])[C@H]2OP(=O)([O-])[O-])nn1.[Na+].[Na+].[Na+].[Na+].[Na+].[Na+].[Na+].[Na+].[Na+].[Na+]` [Compound 31, 4,6-O-bis((1-(2-carboxyethyl)-1H-1,2,3-triazol-4-yl)methyl)-myo-inositol-1,2,3,5-tetrakis(phosphate) decasodium salt]: the EC50 in assay [1] is ≤ 5 µM. In the assay on blood perfusion, the “BP recovery (%)” value is “Over (Average blood perfusion recovery over or under 25%.)”. In the assay on tissue calcification, the “Inhibition of calcification (%) Aorta” value is “Over (Average inhibition percentage over or under 25% inhibition of calcification.)”, the “Inhibition of calcification (%) Carotid” value is reported as “Under (Average inhibition percentage over or under 25% inhibition of calcification.)”, the “Inhibition of calcification (%) Femoral” value is on record as “Over (Average inhibition percentage over or under 25% inhibition of calcification.)” and the “Inhibition of calcification (%) Heart” value is listed as “Over (Average inhibition percentage over or under 25% inhibition of calcification.)”. Besides, the “Inhibition of calcification (%) Kidney” value in the assay on tissue calcification was “Over (Average inhibition percentage over or under 25% inhibition of calcification.)”.

`COCc1cn(CCCCCCO[C@@H]2[C@@H](OP(=O)([O-])[O-])[C@H](OCCCCCCn3cc(COC)nn3)[C@@H](OP(=O)([O-])[O-])[C@@H](OP(=O)([O-])[O-])[C@H]2OP(=O)([O-])[O-])nn1.[Na+].[Na+].[Na+].[Na+].[Na+].[Na+].[Na+].[Na+]` [Compound 39, 4,6-O-bis(6-(4-(methoxymethyl)-1H-1,2,3-triazol-1-yl)hexyl)-myo-inositol-1,2,3,5-tetrakis(phosphate) octasodium salt]: in assay [1], the EC50 was ≤ 5 µM. Moreover, in the assay with blood perfusion, the “BP recovery (%)” value is listed as “Over (Average blood perfusion recovery over or under 25%.)”. Moreover, in the assay on tissue calcification, the “Inhibition of calcification (%) Aorta” value was “Over (Average inhibition percentage over or under 25% inhibition of calcification.)”, the “Inhibition of calcification (%) Carotid” value is on record as “Under (Average inhibition percentage over or under 25% inhibition of calcification.)”, the “Inhibition of calcification (%) Femoral” value is “Over (Average inhibition percentage over or under 25% inhibition of calcification.)” and the “Inhibition of calcification (%) Heart” value was “Over (Average inhibition percentage over or under 25% inhibition of calcification.)”. Further, in the assay on tissue calcification, the “Inhibition of calcification (%) Kidney” value is reported as “Over (Average inhibition percentage over or under 25% inhibition of calcification.)”.
